Assay results as given in ChEMBL document CHEMBL1145693, “Stereochemistry-dependent cytotoxicity of some artemisinin derivatives” (J Nat Prod, 1997).
The source made the active and inactive calls. The calls are words filed in the database; no cut-off is given here.

What was measured:
Type in all cases: functional, cell-based
[1] = Cytotoxicity against mouse EN2 cells after 72 hrs by MTT assay; details: EN2, 72 h
[2] = Cell cycle arrest in mouse EN2 cells assessed as accumulation at G1 phase after 24 hrs by flow cytometry relative to control
[3] = Cytotoxicity against mouse EN2 cells after 24 hrs by cell-count assay; details: EN2, 24 h
EN2 [4] = experiment: Cytotoxicity against mouse EN2 cells after 5 mins by MTT assay
EN2 [5] = experiment: Cytotoxicity against mouse EN2 cells after 10 mins by MTT assay
[6] = Cytotoxicity against mouse EN2 cells after 24 hrs by clonogenic assay; details: EN2, 24 h
[7] = Cytotoxicity against mouse EN2 cells after 24 hrs by MTT assay; details: EN2, 24 h
EN2 [8] = experiment: Cytotoxicity against mouse EN2 cells after 15 mins by MTT assay
[9] = Cell cycle arrest in mouse EN2 cells assessed as accumulation at G1 phase after 24 hrs by flow cytometry; details: EN2, 24 h
[10] = Cell cycle arrest in mouse EN2 cells assessed as accumulation at S phase after 24 hrs by flow cytometry relative to control
[11] = Cell cycle arrest in mouse EN2 cells assessed as accumulation at S phase after 48 hrs by flow cytometry relative to control
[12] = Cytotoxicity against mouse EN2 cells at 50 uM after 24 hrs by clonogenic assay; details: EN2, 24 h
[13] = Cell cycle arrest in mouse EN2 cells assessed as accumulation at G1 phase at 0.4 uM after 24 to 48 hrs by flow cytometry relative to control
[14] = Cell cycle arrest in mouse EN2 cells assessed as accumulation at G1 phase after 2 hrs of incubation measured after 24 hrs relative to control
[15] = Cell cycle arrest in mouse EN2 cells assessed as accumulation at G1 phase at 0.4 uM after 12 hrs by flow cytometry relative to control
[16] = Cytotoxicity against mouse EN2 cells after 2 hrs of incubation measured after 6 days by clonogenic assay
[17] = Cytotoxicity against mouse EN2 cells after 2 hrs of incubation measured after 24 hrs by cell-count assay
[18] = Cytotoxicity against mouse EN2 cells after 2 hrs of incubation measured after 2 days by MTT assay

Structure (SMILES)	IC50 [1]	Activity [2]	IC50 [3]	IC50 [7]	IC50 [9]	further results
C[C@H]1[C@@H](O[C@H]2O[C@@H]3O[C@]4(C)CC[C@H]5[C@H](C)CC[C@@H]([C@H]2C)[C@@]35OO4)O[C@@H]2O[C@]3(C)CC[C@H]4[C@H](C)CC[C@@H]1[C@@]24OO3	2 µM	Active	8.9 µM	7.2 µM	1 µM	Activity (EN2 [4]): Active; Activity (EN2 [5]): Active; IC50 [6]: > 50 µM; Activity (EN2 [8]): Active
C[C@@H]1CC[C@H]2[C@@H](C)C(=O)O[C@@H]3O[C@@]4(C)CC[C@@H]1[C@]32O4 [DEOXYARTEMISININ]	111 µM					
C[C@@H]1CC[C@H]2[C@@H](C)C(=O)O[C@@H]3O[C@@]4(C)CC[C@@H]1[C@]32OO4 [ARTEMISININ]	0.98 µM	inactive	30 µM	11.5 µM	1 µM	Activity [10]: Dose-dependent effect; Activity [11]: inactive; IC50 [6]: > 50 µM
C[C@@H]1CC[C@@H]2[C@]34OO[C@](C)(CC[C@@H]13)O[C@H]4OC(=O)[C@]21CO1	> 100 µM					
C[C@@H]1CC[C@@H]2[C@]34OO[C@](C)(CC[C@@H]13)O[C@H]4OC(=O)[C@@]21CO1	12.7 µM					
C[C@H]1[C@H](O[C@H]2O[C@@H]3O[C@]4(C)CC[C@H]5[C@H](C)CC[C@@H]([C@H]2C)[C@@]35O4)O[C@@H]2O[C@]3(C)CC[C@H]4[C@H](C)CC[C@@H]1[C@@]24O3 [listing 1 of 2 here]	8.9 µM					
C[C@H]1[C@H](O[C@H]2O[C@@H]3O[C@]4(C)CC[C@H]5[C@H](C)CC[C@@H]([C@H]2C)[C@@]35OO4)O[C@@H]2O[C@]3(C)CC[C@H]4[C@H](C)CC[C@@H]1[C@@]24OO3	0.11 µM	Active	0.54 µM	0.35 µM	0.05 µM	IC50 [12]: 1 µM; Activity [13]: inactive; Activity [14]: Dose-dependent effect; IC50 [14]: 1 µM; Activity [15]: Active; IC50 [16]: 55.6 µM; IC50 [17]: 9.3 µM; Activity (EN2 [4]): Active; Activity (EN2 [5]): Active; IC50 [18]: 3.6 µM; Activity (EN2 [8]): Active
C[C@H]1[C@H](O[C@H]2O[C@@H]3O[C@]4(C)CC[C@H]5[C@H](C)CC[C@@H]([C@H]2C)[C@@]35O4)O[C@@H]2O[C@]3(C)CC[C@H]4[C@H](C)CC[C@@H]1[C@@]24O3 [listing 2 of 2 here]	99.8 µM					
